Common to all, as to assay: relative viability (nuclei count vs DMSO), 5 days (fraction); higher = more cells survive
Compound in one assay: O=C(O)c1ccc2c(c1)nc(Nc1cccc(Cl)c1)c1ccncc12 [Silmitasertib]
The procedure, abridged: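 On vehicle-anchored 1536-well plates, lung cancer cell lines held overnight at 37 °C were pinned with five library-drug doses (not always all listed) spaced by √10. With no medium change over 5 days, they were then fixed, permeabilised and Hoechst-stained in one step and imaged at 4×. MetaXpress counted nuclei, and viability is the median across plates of treated-well over vehicle-well nuclei. Acceptance needed control CV below 25% and at least one doubling.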

Compound in the assay “Silmitasertib + AZD7762”: O=C(O)c1ccc2c(c1)nc(Nc1cccc(Cl)c1)c1ccncc12 [Silmitasertib] + NC(=O)Nc1cc(-c2cccc(F)c2)sc1C(=O)N[C@H]1CCCNC1 [AZD7762] (partner 0.2 µM)
The gist of the method: (§1)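 Each reported value is a median over duplicate plates. It expresses relative viability: treated-well nuclei count divided by vehicle-well nuclei count. Lung cancer cell lines in 1536-well plates were dosed by pin tool a day after seeding, alone with one drug or with a fixed anchor-drug dose plus five library-drug doses (not always all listed) in √10 steps, and nuclei were counted after 5 days.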

Compound in assay [1]: O=C(O)c1ccc2c(c1)nc(Nc1cccc(Cl)c1)c1ccncc12 [Silmitasertib] + CC(=O)Nc1cccc(-n2c(=O)n(C3CC3)c(=O)c3c(Nc4ccc(I)cc4F)n(C)c(=O)c(C)c32)c1 [Trametinib] (partner 0.02 µM)
The procedure, abridged: as §1

Compound in assay [2]: O=C(O)c1ccc2c(c1)nc(Nc1cccc(Cl)c1)c1ccncc12 [Silmitasertib] + CS(=O)(=O)CCNCc1ccc(-c2ccc3ncnc(Nc4ccc(OCc5cccc(F)c5)c(Cl)c4)c3c2)o1 [Lapatinib] (partner 2 µM)
The gist of the method:
as §1

Compound in assay [3]: O=C(O)c1ccc2c(c1)nc(Nc1cccc(Cl)c1)c1ccncc12 [Silmitasertib] + O=C(CCCCCCC(=O)Nc1ccccc1)NO [Vorinostat] (partner 1 µM)
The gist of the method: as §1

On to HCC-44, for which the relative viability with Silmitasertib (0.04 µM) came out at 1.03; with Silmitasertib (0.4 µM) it was 0.963; with Silmitasertib (1.265 µM), 1.03; with Silmitasertib (4 µM), 0.544; with Silmitasertib + AZD7762 (first compound 0.04 µM), 0.978; with Silmitasertib + AZD7762 (first compound 0.4 µM), 1.04. In addition, the relative viability came to 1.08 in the assay with Silmitasertib + AZD7762 (first compound 1.265 µM); 0.978 with Silmitasertib + AZD7762 (first compound 4 µM); 1.15 in assay [1] (first compound 0.04 µM); 0.906 in assay [1] (first compound 0.4 µM); 1.02 in assay [1] (first compound 1.265 µM); 1.07 in assay [1] (first compound 4 µM). In addition, the relative viability in assay [2] (first compound 0.04 µM) is 0.968; in assay [2] (first compound 0.4 µM), 0.916; in assay [2] (first compound 1.265 µM), 1.02; in assay [2] (first compound 4 µM), 0.699; in assay [3] (first compound 0.04 µM) it was 1.06; in assay [3] (first compound 0.4 µM) it was 0.903. The relative viability in assay [3] (first compound 1.265 µM) came out at 1.24; in assay [3] (first compound 4 µM), 1.16.

Regarding EPLC-272H, the relative viability is 1.25 with Silmitasertib (0.04 µM); 0.807 with Silmitasertib (1.265 µM); 0.154 with Silmitasertib (4 µM); 0.232 with Silmitasertib + AZD7762 (first compound 0.04 µM); 0.275 with Silmitasertib + AZD7762 (first compound 1.265 µM); 0.217 with Silmitasertib + AZD7762 (first compound 4 µM). Besides, the relative viability turned out to be 0.319 in assay [1] (first compound 0.04 µM); 0.214 in assay [1] (first compound 1.265 µM); 0.279 in assay [1] (first compound 4 µM); 1.09 in assay [2] (first compound 0.04 µM); 0.666 in assay [2] (first compound 1.265 µM); 0.122 in assay [2] (first compound 4 µM). For the same cell line, the relative viability in assay [3] (first compound 0.04 µM) came out at 0.454; in assay [3] (first compound 0.4 µM) it was 0.685; in assay [3] (first compound 1.265 µM), 0.391; in assay [3] (first compound 4 µM) it was 0.13.

Regarding NCI-H358, the relative viability with Silmitasertib (0.04 µM) stood at 1.13; in the assay with Silmitasertib (0.4 µM) it was 0.757; in the assay with Silmitasertib (1.265 µM), 0.744; with Silmitasertib (4 µM), 0.667; with Silmitasertib + AZD7762 (first compound 0.04 µM), 0.633; with Silmitasertib + AZD7762 (first compound 0.4 µM), 0.574. Further, the relative viability with Silmitasertib + AZD7762 (first compound 1.265 µM) came out at 0.595; with Silmitasertib + AZD7762 (first compound 4 µM), 0.567; in assay [1] (first compound 0.04 µM) it was 0.163; in assay [1] (first compound 0.4 µM), 0.127; in assay [1] (first compound 1.265 µM), 0.145; in assay [1] (first compound 4 µM) it was 0.143. The relative viability in assay [2] (first compound 0.04 µM) was determined as 0.448; in assay [2] (first compound 0.4 µM), 0.57; in assay [2] (first compound 1.265 µM) it was 0.507; in assay [2] (first compound 4 µM), 0.35; in assay [3] (first compound 0.04 µM) it was 0.774; in assay [3] (first compound 0.4 µM) it was 0.652. Moreover, the relative viability was found to be 0.677 in assay [3] (first compound 1.265 µM) and 0.692 in assay [3] (first compound 4 µM).

NCI-H596: the relative viability with Silmitasertib (0.04 µM) was 0.958; with Silmitasertib (0.4 µM) it was 0.792; with Silmitasertib (1.265 µM), 0.947; with Silmitasertib (4 µM) it was 0.658; in the assay with Silmitasertib + AZD7762 (first compound 0.04 µM), 1.04; with Silmitasertib + AZD7762 (first compound 0.4 µM), 1.08. For the same cell line, the relative viability amounted to 0.953 with Silmitasertib + AZD7762 (first compound 1.265 µM); 0.957 in the assay with Silmitasertib + AZD7762 (first compound 4 µM); 0.765 in assay [1] (first compound 0.04 µM); 0.684 in assay [1] (first compound 0.4 µM); 0.764 in assay [1] (first compound 1.265 µM); 0.796 in assay [1] (first compound 4 µM). The relative viability in assay [2] (first compound 0.04 µM) amounted to 1.06; in assay [2] (first compound 0.4 µM) it was 1.04; in assay [2] (first compound 1.265 µM), 0.833; in assay [2] (first compound 4 µM), 0.977; in assay [3] (first compound 0.04 µM), 0.768; in assay [3] (first compound 0.4 µM), 0.616. Moreover, the values for the relative viability in assay [3] (first compound 1.265 µM) and in assay [3] (first compound 4 µM) were 0.611 and 0.375, respectively.

In the case of NCI-H322M, the relative viability amounted to 1.08 with Silmitasertib (0.04 µM); 0.882 in the assay with Silmitasertib (0.4 µM); 0.826 with Silmitasertib (1.265 µM); 0.486 with Silmitasertib (4 µM); 0.554 in the assay with Silmitasertib + AZD7762 (first compound 0.04 µM); 0.608 with Silmitasertib + AZD7762 (first compound 0.4 µM). Moreover, the relative viability came to 0.562 with Silmitasertib + AZD7762 (first compound 1.265 µM); 0.405 in the assay with Silmitasertib + AZD7762 (first compound 4 µM); 0.61 in assay [1] (first compound 0.04 µM); 0.5 in assay [1] (first compound 0.4 µM); 0.47 in assay [1] (first compound 1.265 µM); 0.553 in assay [1] (first compound 4 µM). Further, the relative viability in assay [2] (first compound 0.04 µM) was found to be 0.668; in assay [2] (first compound 0.4 µM) it was 0.549; in assay [2] (first compound 1.265 µM), 0.42; in assay [2] (first compound 4 µM), 0.387; in assay [3] (first compound 0.04 µM), 0.994; in assay [3] (first compound 0.4 µM), 0.936. The relative viability in assay [3] (first compound 1.265 µM) was found to be 0.968; in assay [3] (first compound 4 µM) it was 0.653.

The values are drawn from the supplement of paper PMC10307832.
